Where “and” joins values, the source holds several entries; their conditions need not be identical. Identical values can stand only once.
Legend:
[1] = tested on: Salmonella typhimurium; test: USP Antimicrobial Effectiveness Test (AET) of MSM supplemented TSB; format: cell-based; parameters: key: Colonies too numerous to count (TNTC); details: 48 hrs
[2] = tested on: E. coli; test: E. coli log growth in MSM-lactose broth with or without DMSO; format: cell-based, Escherichia coli
Experimental: Lactose broth, free of both NaCl and of proteins, was used as the media in this experiment. […] Each media composition was initially inoculated with 6.75×10^6 cfu/mL of E. coli. Cultures were incubated at 25° C. for seven days. Aliquots of each culture were taken after 24 hours of culturing and at the end of seven days in culture. Aliquots were serially diluted (with Modified Letheen diluent) and plated on trypto-soy agar plates.

[3] = tested on: Bifidobacterium bifidum; test: Growth of Bifidobacterium bifidum in MRS broth fortified with MSM (anaerobic); format: cell-based
Experimental: Each organism (Lactobacillus rhamnosus, Lactobacillus acidophilus, and Bifidobacterium bifidum) was grown in MRS bacterial growth medium (broth) and plated on MRS agar at different time intervals. Results are expressed in colony forming units per milliliter (cfu/mL). […] All bacterial organisms were incubated at 35° C. +/−2° C. for the duration of the study. […] All preparations and plating were conducted at room temperature. […] Test samples were plated in triplicate at each test date and the averages are reported. Bifidobacterium bifidum, a common microbe used in probiotics, was also tested. All Bifidobacterium samples were incubated under anaerobic conditions.

[4] = tested on: Bacillus coagulans; test: Bacillus coagulans growth in simulated gastric acid supplemented with MSM; format: cell-based; details: simulated gastric acid pH 1.2
[5] = tested on: normal flora found in the milks; test: Growth of non-probiotic microorganisms in Acidophilus milk (standard plate counts); format: cell-based
Experimental: 31, 2013. […] The Acidophilus milk was low fat (Darigold). […] This was performed to look at how MSM would affect the normal flora found in the milks. Day 0 was the day the samples were setup for the start of the study. The Acidophilus plus Bifidus milk started with a higher count at Day 0 than what is typically expected. This caused the end values to be elevated. The Acidophilus milk product at Day 0 was at expected values. The Acidophilus milk maintained adequate growth rates through out the study and were equivalent to typical growth rates seen in milk products.

[6] = tested on: Bifidobacterium bifidum ATCC #29521; test: Bifidobacterium bifidum growth in media fortified with MSM, 96 hours; format: cell-based; details: 0.125% MSM

CS(C)(=O)=O [MSM, Methylsulfonylmethane]
AET test results (microorganism count) ([1]; 1:100 dilution of MSM in TSB): TNTC | AET test results (microorganism count) ([1]; 1:1000 dilution of MSM in TSB): TNTC | reduction of bacterial growth ([2]; 11% MSM, 24 hours (maximum)): about 2.2 logs | reduction of bacterial growth ([2]; 16% MSM, 24 hours): about 1 log | log increase of Bifidobacterium ([3]; 0.04% MSM): One | log higher than the 0% MSM control ([3]; 0.04% and 0.2% MSM samples, 48 hours): 1 log | log increase of Bifidobacterium ([3]; 0.2% MSM): 2 log | Log Growth of Bacillus coagulans average ([4]; 5% MSM, hour 0): 0.26 log | Log Growth of Bacillus coagulans in duplicate ([4]; 5% MSM, hour 3): 0 log | Log Growth of Bacillus coagulans average ([4]; 5% MSM, hour 3): 0 log | Log Growth of Bacillus coagulans in duplicate ([4]; 5% MSM, hour 6): 0 log | Log Growth of Bacillus coagulans average ([4]; 5% MSM, hour 6): 0 log | Log Growth of Bacillus coagulans in duplicate ([4]; 5% MSM, hour 9): 0 log | Log Growth of Bacillus coagulans average ([4]; 5% MSM, hour 9): 0 log | Log Growth of Bacillus coagulans in duplicate ([4]; 5% MSM, hour 12): 0 log | Log Growth of Bacillus coagulans average ([4]; 5% MSM, hour 12): 0 log | Log Growth of Bacillus coagulans average ([4]; 5% MSM, hour 15): 0.26 log | Log Growth of Bacillus coagulans in duplicate ([4]; 5% MSM, hour 24): 0 log | Log Growth of Bacillus coagulans average ([4]; 5% MSM, hour 24): 0 log | Log Growth of Bacillus coagulans in duplicate ([4]; 5% MSM, hour 48): 0 log | Log Growth of Bacillus coagulans average ([4]; 5% MSM, hour 48): 0 log | Log Growth of Bacillus coagulans in duplicate ([4]; […] MSM, hour 0): 0 log | Log Growth of Bacillus coagulans in duplicate ([4]; […] MSM, hour 3): 0 log | Log Growth of Bacillus coagulans in duplicate ([4]; […] MSM, hour 9): 0 log | Log Growth of Bacillus coagulans average ([4]; […] MSM, hour 9): 0 log | Log Growth of Bacillus coagulans in duplicate ([4]; […] MSM, hour 12): 0 log | Log Growth of Bacillus coagulans in duplicate ([4]; […] MSM, hour 15): 0 log | Log Growth of Bacillus coagulans average ([4]; […] MSM, hour 15): 0 log | Log Growth of Bacillus coagulans in duplicate ([4]; […] MSM, hour 24): 0 log | Log Growth of Bacillus coagulans average ([4]; […] MSM, hour 24): 0 log | Log Growth of Bacillus coagulans in duplicate ([4]; […] MSM, hour 48): 0 log | Log Growth of Bacillus coagulans average ([4]; […] MSM, hour 48): 0 log | growth of normal flora (standard plate counts) ([5]; 5.0% MSM, throughout the study): did not allow any significant growth | Growth of non-probiotic microorganisms in Acidophilus Milk ([5]; A/B milk, […] MSM, Day 0): 370 cfu per mL | Growth of non-probiotic microorganisms in Acidophilus Milk ([5]; A/B milk, […] MSM, Day 3): 480 cfu per mL | Growth of non-probiotic microorganisms in Acidophilus Milk ([5]; A/B milk, […] MSM, Day 7): 570 cfu per mL | Growth of non-probiotic microorganisms in Acidophilus Milk ([5]; A/B milk, […] MSM, Day 14): 1460 cfu per mL | Growth of non-probiotic microorganisms in Acidophilus Milk ([5]; A/B milk, […] MSM, Day 21): 3500 cfu per mL | Growth of non-probiotic microorganisms in Acidophilus Milk ([5]; A/B milk, […] MSM, Day 28): 110000 cfu per mL | Growth of non-probiotic microorganisms in Acidophilus Milk ([5]; acidophilus milk, 0.50% MSM, Day 0): 20 cfu per mL and 30 cfu per mL | Growth of non-probiotic microorganisms in Acidophilus Milk ([5]; acidophilus milk, 0.50% MSM, Day 3): 10 cfu per mL | Growth of non-probiotic microorganisms in Acidophilus Milk ([5]; acidophilus milk, 0.50% MSM, Day 7): 10 cfu per mL | Growth of non-probiotic microorganisms in Acidophilus Milk ([5]; acidophilus milk, 0.50% MSM, Day 14): 20 cfu per mL | Growth of non-probiotic microorganisms in Acidophilus Milk ([5]; acidophilus milk, 0.50% MSM, Day 21): 20 cfu per mL and 40 cfu per mL | Growth of non-probiotic microorganisms in Acidophilus Milk ([5]; acidophilus milk, 5% MSM, Day 0): 10 cfu per mL and 20 cfu per mL | Growth of non-probiotic microorganisms in Acidophilus Milk ([5]; acidophilus milk, 5% MSM, Day 3): 10 cfu per mL | Growth of non-probiotic microorganisms in Acidophilus Milk ([5]; acidophilus milk, 5% MSM, Day 7): 10 cfu per mL and 20 cfu per mL | Growth of non-probiotic microorganisms in Acidophilus Milk ([5]; acidophilus milk, 5% MSM, Day 14): 20 cfu per mL and 10 cfu per mL | Growth of non-probiotic microorganisms in Acidophilus Milk ([5]; acidophilus milk, 5% MSM, Day 21): 20 cfu per mL and 10 cfu per mL | Growth of non-probiotic microorganisms in Acidophilus Milk ([5]; acidophilus milk, 5% MSM, Day 28): 10 cfu per mL | Growth of non-probiotic microorganisms in Acidophilus Milk ([5]; acidophilus milk, […] MSM, Day 0): 10 cfu per mL | Growth of non-probiotic microorganisms in Acidophilus Milk ([5]; acidophilus milk, […] MSM, Day 14): <10 cfu per mL | Log Growth of Bifidobacteruim bifidum in Media Fortified with MSM ([6]; Hr 0): 1.12 log | Log Growth of Bifidobacteruim bifidum in Media Fortified with MSM ([6]; Hr 8): 2.89 log | Log Growth of Bifidobacteruim bifidum in Media Fortified with MSM ([6]; Hr 16): 7.85 log | Log Growth of Bifidobacteruim bifidum in Media Fortified with MSM ([6]; Hr 24): 9.06 log | Log Growth of Bifidobacteruim bifidum in Media Fortified with MSM ([6]; Hr 32): 11.45 log | Log Growth of Bifidobacteruim bifidum in Media Fortified with MSM ([6]; Hr 40): 10.80 log | Log Growth of Bifidobacteruim bifidum in Media Fortified with MSM ([6]; Hr 48): 8.22 log | Log Growth of Bifidobacteruim bifidum in Media Fortified with MSM ([6]; Hr 56): 7.25 log | Log Growth of Bifidobacteruim bifidum in Media Fortified with MSM ([6]; Hr 64): 8.86 log

Source: patent publication US9487749B2 (priority 2009, dated 2016)
